We go through 15 compounds from US20210395313A1, “PEPTIDE PAC1 ANTAGONISTS” (AMGEN INC., priority 2017, published 2021).

The target of one assay is T1, human PAC1 receptor (Homo sapiens, UniProt P41586).
T1 construct: SHSY-5Y (human neuroblastoma cell line) and RG-2 (rat glioma cell line) cells endogenously express human and rat PAC1 receptors, respectively; endogenous in cells; host or cells: SHSY-5Y human neuroblastoma cells
T1 sequence (P41586 21-468): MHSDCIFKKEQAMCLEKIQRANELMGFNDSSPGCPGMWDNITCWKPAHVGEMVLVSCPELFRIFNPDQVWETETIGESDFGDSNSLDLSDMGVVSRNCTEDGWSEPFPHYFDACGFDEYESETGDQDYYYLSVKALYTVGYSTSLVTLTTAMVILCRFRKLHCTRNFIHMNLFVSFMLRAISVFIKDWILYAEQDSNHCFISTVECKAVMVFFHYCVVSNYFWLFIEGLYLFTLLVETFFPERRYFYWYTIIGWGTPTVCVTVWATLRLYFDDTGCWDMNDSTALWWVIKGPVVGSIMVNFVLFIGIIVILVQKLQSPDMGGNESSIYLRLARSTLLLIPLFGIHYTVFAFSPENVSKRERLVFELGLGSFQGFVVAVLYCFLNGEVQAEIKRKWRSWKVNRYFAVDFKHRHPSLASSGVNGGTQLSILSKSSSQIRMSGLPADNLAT
Kind of assay: LANCE Ultra cAMP accumulation antagonist assay in SHSY-5Y cells.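 Note: inhibition of cAMP accumulation evoked by PAC1 agonist at its EC80 in SHSY-5Y cells endogenously expressing receptor, 30 min preincubation then 15 min agonist, TR-FRET readout.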 Format: cell-based. On the technique in general: TR-FRET usually uses a lanthanide donor and a delayed reading to cut background.

In the next assay the target is T2, rat PAC1 receptor (Rattus norvegicus, UniProt P32215).
T2 construct: SHSY-5Y (human neuroblastoma cell line) and RG-2 (rat glioma cell line) cells endogenously express human and rat PAC1 receptors, respectively; endogenous in cells; host or cells: RG-2 rat glioma cells
T2 sequence (P32215 20-523): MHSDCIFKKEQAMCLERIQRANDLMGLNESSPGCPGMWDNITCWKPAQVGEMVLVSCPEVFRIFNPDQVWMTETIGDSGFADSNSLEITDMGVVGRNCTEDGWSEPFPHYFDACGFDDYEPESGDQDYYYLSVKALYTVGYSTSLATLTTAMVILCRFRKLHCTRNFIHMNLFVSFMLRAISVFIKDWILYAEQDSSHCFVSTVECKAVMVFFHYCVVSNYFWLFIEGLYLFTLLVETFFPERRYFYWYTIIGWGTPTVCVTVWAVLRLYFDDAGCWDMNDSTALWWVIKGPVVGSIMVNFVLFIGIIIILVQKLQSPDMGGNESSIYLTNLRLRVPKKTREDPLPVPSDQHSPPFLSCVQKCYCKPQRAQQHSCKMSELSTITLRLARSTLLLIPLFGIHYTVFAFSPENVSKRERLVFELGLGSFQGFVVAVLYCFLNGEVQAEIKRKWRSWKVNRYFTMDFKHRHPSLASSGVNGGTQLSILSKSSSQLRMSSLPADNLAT
Kind of assay: LANCE Ultra cAMP accumulation antagonist assay in RG-2 cells.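 Note: RG-2 rat glioma cells endogenously expressing PAC1, test peptide preincubated 30 min, then PAC1 agonist added at its EC80 for 15 min, cAMP accumulation read by LANCE Ultra.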 In kind it is cell-based.

pIC50: −log10 of the molar value. Where a SMILES comes first, the peptide text is derived from it. Bridges are numbered along the chain shown (N, C = ends). Where no end group is shown, it is not given here.

Regarding `CC[C@H](C)[C@H](NC(=O)[C@H](C)NC(=O)[C@H](CCCCN)NC(=O)[C@H](CCCNC(=N)N)NC(=O)[C@H](Cc1ccccc1)NC(=O)[C@H](CCC(N)=O)NC(=O)[C@@H]1CSSC[C@H](N)C(=O)N[C@@H](CC(=O)O)C(=O)N[C@@H](C)C(=O)N[C@@H]([C@@H](C)O)C(=O)N1)C(=O)N[C@@H](CC(=O)O)C(=O)N[C@@H](CC(=O)O)C(=O)N[C@H]1CSSC[C@@H](C(=O)N[C@@H](CCSC)C(=O)N[C@@H](CCCCN)C(=O)N[C@@H](CCC(N)=O)C(=O)N[C@@H](CCCCN)C(=O)N[C@@H](CCCCN)C(=O)N[C@@H](CCCCN)C(=O)N[C@@H](CCC(=O)O)C(=O)N[C@@H](Cc2c[nH]c3ccccc23)C(=O)N[C@@H](CCCCN)C(=O)N[C@@H](C)C(=O)NCC(N)=O)NC(=O)[C@H](C)NC(=O)[C@H](CCCCN)NC(=O)[C@H](Cc2ccccc2)NC(=O)[C@H](C(C)C)NC(=O)[C@H](CO)NC(=O)[C@H](CO)NC(=O)[C@H](Cc2c[nH]cn2)NC(=O)[C@H](Cc2ccc(O)cc2)NC(=O)[C@H](C)NC(=O)[C@H](CCC(N)=O)NC(=O)[C@H](CCCNC(=N)N)NC(=O)[C@H](CC(=O)O)NC1=O` [compound 21] (H-CDATCQFRKAIDDCDRQAYHSSVFKACMKQKKKEWKAG-NH2; disulfide 1-5, 14-27), the pIC50 on human PAC1 receptor and at rat PAC1 receptor was 9.00 to 11.00 throughout.

With “CDATCQFRKAIDDCVRQAHHSNVPGSVFKACMKQKKKEWKAG-NH2 (disulfide 1-5, 14-31) [compound 79]”, the results for the pIC50 on human PAC1 receptor and against rat PAC1 receptor were 9.00 to 11.00 and above 11.00, respectively.

In the case of “CDATCQFRKAIDDCWIVAWHSNVPGSVFKACMKQKKKEFKAG-NH2 (disulfide 1-5, 14-31) [compound 73]”, the pIC50 on human PAC1 receptor and against rat PAC1 receptor was 9.00 to 11.00 throughout.

With “CDATCQFRKAIDDCAKQAHHANVPGSVFKACMKQKKKEFKAG-NH2 (disulfide 1-5, 14-31) [compound 13]”, the pIC50 at human PAC1 receptor and at rat PAC1 receptor was 9.00 to 11.00 each time.

Turning to `C#CC[C@@H]1NC(=O)[C@H](CCC(N)=O)NC(=O)[C@H](CCCCN)NC(=O)[C@H](CCC(N)=O)NC(=O)[C@@H](NC(=O)[C@H](CC(=O)O)NC(=O)[C@H](CC(=O)O)NC(=O)[C@@H](NC(=O)[C@H](C)NC(=O)[C@H](CCCCN)NC(=O)[C@H](CCCNC(=N)N)NC(=O)[C@H](Cc2ccccc2)NC(=O)[C@H](CCC(N)=O)NC(=O)[C@@H]2CSSC[C@H](N)C(=O)N[C@@H](CC(=O)O)C(=O)N[C@@H](C)C(=O)N[C@@H]([C@@H](C)O)C(=O)N2)[C@@H](C)CC)CSSC[C@@H](C(=O)N[C@@H](CCSC)C(=O)N[C@@H](CCCCN)C(=O)N[C@@H](CCC(N)=O)C(=O)N[C@@H](CCCCN)C(=O)N[C@@H](CCCCN)C(=O)N[C@@H](CCCCN)C(=O)N[C@@H](CCC(=O)O)C(=O)N[C@@H](Cc2ccccc2)C(=O)N[C@@H](CCCCN)C(=O)N[C@@H](C)C(=O)NCC(N)=O)NC(=O)[C@H](C)NC(=O)[C@H](CCCCN)NC(=O)[C@H](Cc2ccccc2)NC(=O)[C@H](C(C)C)NC(=O)[C@H](CO)NC(=O)CNC(=O)[C@@H]2CCCN2C(=O)[C@H](C(C)C)NC(=O)[C@H](CC(N)=O)NC(=O)[C@H](CO)NC(=O)[C@H](Cc2c[nH]cn2)NC(=O)[C@H](Cc2c[nH]cn2)NC1=O` [compound 32], the pIC50 at human PAC1 receptor and against rat PAC1 receptor was 9.00 to 11.00 in each case.

Turning to “CDATCQFRKAIDDCAKQAHHSNVPGSVFKACMKQKKKEFKAGH (disulfide 1-5, 14-31) [compound 57]”, the pIC50 at human PAC1 receptor and against rat PAC1 receptor was 9.00 to 11.00 in each case.

As to “CDATCQFRKAIDDCVRQAHHSNVPGSVFKACMKQKKKEWKAG (disulfide 1-5, 14-31) [compound 82]”, the pIC50 against human PAC1 receptor and on rat PAC1 receptor was 9.00 to 11.00 throughout.

Turning to `CC[C@H](C)[C@H](NC(=O)[C@H](C)NC(=O)[C@H](CCCCN)NC(=O)[C@H](CCCNC(=N)N)NC(=O)[C@H](Cc1ccccc1)NC(=O)[C@H](CCC(N)=O)NC(=O)[C@@H]1CSSC[C@H](N)C(=O)N[C@@H](CC(=O)O)C(=O)N[C@@H](C)C(=O)N[C@@H]([C@@H](C)O)C(=O)N1)C(=O)N[C@@H](CC(=O)O)C(=O)N[C@@H](CC(=O)O)C(=O)N[C@H]1CSSC[C@@H](C(=O)N[C@@H](CCSC)C(=O)N[C@@H](CCCCN)C(=O)N[C@@H](CCC(N)=O)C(=O)N[C@@H](CCCCN)C(=O)N[C@@H](CCCCN)C(=O)N[C@@H](CCCCN)C(=O)N[C@@H](CCC(=O)O)C(=O)N[C@@H](Cc2ccccc2)C(=O)N[C@@H](CCCCN)C(=O)N[C@@H](C)C(=O)NCC(=O)N[C@@H](Cc2ccc(O)cc2)C(=O)O)NC(=O)[C@H](C)NC(=O)[C@H](CCCCN)NC(=O)[C@H](Cc2ccccc2)NC(=O)[C@H](C(C)C)NC(=O)[C@H](CO)NC(=O)[C@H](CO)NC(=O)[C@H](Cc2c[nH]cn2)NC(=O)[C@H](Cc2ccc(O)cc2)NC(=O)[C@H](C)NC(=O)[C@H](CCC(N)=O)NC(=O)[C@H](CCCCN)NC(=O)[C@H](C)NC1=O` [compound 30] (H-CDATCQFRKAIDDCAKQAYHSSVFKACMKQKKKEFKAGY-OH; disulfide 1-5, 14-27), the pIC50 against human PAC1 receptor and at rat PAC1 receptor was 9.00 to 11.00 throughout.

Take `CC[C@H](C)[C@H](NC(=O)[C@H](C)NC(=O)[C@H](CCCCN)NC(=O)[C@H](CCCNC(=N)N)NC(=O)[C@H](Cc1ccccc1)NC(=O)[C@H](CCC(N)=O)NC(=O)[C@@H]1CSSC[C@H](N)C(=O)N[C@@H](CC(=O)O)C(=O)N[C@@H](C)C(=O)N[C@@H]([C@@H](C)O)C(=O)N1)C(=O)N[C@@H](CC(=O)O)C(=O)N[C@@H](CC(=O)O)C(=O)N[C@H]1CSSC[C@@H](C(=O)N[C@@H](CCSC)C(=O)N[C@@H](CCCCN)C(=O)N[C@@H](CCC(N)=O)C(=O)N[C@@H](CCCCN)C(=O)N[C@@H](CCCCN)C(=O)N[C@@H](CCCCN)C(=O)N[C@@H](CCC(=O)O)C(=O)N[C@@H](Cc2c[nH]c3ccccc23)C(=O)N[C@@H](CCCCN)C(=O)N[C@@H](C)C(=O)NCC(N)=O)NC(=O)[C@H](C)NC(=O)[C@H](CCCCN)NC(=O)[C@H](Cc2ccccc2)NC(=O)[C@H](CO)NC(=O)[C@H](CO)NC(=O)[C@H](Cc2c[nH]cn2)NC(=O)[C@H](Cc2ccc(O)cc2)NC(=O)[C@H](C)NC(=O)[C@H](CCC(N)=O)NC(=O)[C@H](CCCNC(=N)N)NC(=O)[C@H](C)NC1=O` [compound 20] (H-CDATCQFRKAIDDCARQAYHSSFKACMKQKKKEWKAG-NH2; disulfide 1-5, 14-26): the pIC50 against human PAC1 receptor and against rat PAC1 receptor was 9.00 to 11.00 throughout.

For the compound “CDATCQYRKGLVACLYKKVAMQKRYSVFKACMKQKKKEFKAG-NH2 (disulfide 1-5, 14-31) [compound 46]”, the pIC50 (usually the negative decadic logarithm of the IC50, by convention in mol/L) is 7.00 to 9.00 at human PAC1 receptor and 9.00 to 11.00 against rat PAC1 receptor.

“CDATCQFRKAIDDCYYRSWHSNVPGSVFKACMKFRFNVWKAG-NH2 (disulfide 1-5, 14-31) [compound 67]”: the pIC50 on human PAC1 receptor is 7.00 to 9.00; against rat PAC1 receptor it was 9.00 to 11.00.

As to “CDATCQFRKAIDDCQKQAHHSNVPGSVFKVCMKQKKKEFKAG-NH2 (disulfide 1-5, 14-31) [compound 211]”, the pIC50 against human PAC1 receptor was 7.00 to 9.00; against rat PAC1 receptor, 9.00 to 11.00.

In the case of “CEATCQFRKAIDDCARQAHHSNVPGSVFKACMKQKKKEWKAGH (disulfide 1-5, 14-31) [compound 11]”, the pIC50 at human PAC1 receptor and against rat PAC1 receptor was 9.00 to 11.00 throughout.

For the compound `CC[C@H](C)[C@H](NC(=O)[C@H](C)NC(=O)[C@H](CCCCN)NC(=O)[C@H](CCCNC(=N)N)NC(=O)[C@H](Cc1ccccc1)NC(=O)[C@H](CCC(N)=O)NC(=O)[C@@H]1CSSC[C@H](N)C(=O)N[C@@H](CC(=O)O)C(=O)N[C@@H](C)C(=O)N[C@@H]([C@@H](C)O)C(=O)N1)C(=O)N[C@@H](CC(=O)O)C(=O)N[C@@H](CC(=O)O)C(=O)N[C@H]1CSSC[C@@H](C(=O)N[C@@H](CCSC)C(=O)N[C@@H](CCCCN)C(=O)N[C@@H](CCC(N)=O)C(=O)N[C@@H](CCCCN)C(=O)N[C@@H](CCCCN)C(=O)N[C@@H](CCCCN)C(=O)N[C@@H](CCC(=O)O)C(=O)N[C@@H](Cc2ccccc2)C(=O)N[C@@H](CCCCN)C(=O)N[C@@H](C)C(=O)NCC(=O)N[C@@H](Cc2ccc(O)cc2)C(=O)O)NC(=O)[C@H](C)NC(=O)[C@H](CCCCN)NC(=O)[C@H](Cc2ccccc2)NC(=O)[C@H](C(C)C)NC(=O)[C@H](CO)NC(=O)[C@H](CO)NC(=O)[C@H](Cc2c[nH]cn2)NC(=O)[C@H](C)NC(=O)[C@H](CCC(N)=O)NC(=O)[C@H](CCCCN)NC(=O)[C@H](C)NC1=O` [compound 37] (H-CDATCQFRKAIDDCAKQAHSSVFKACMKQKKKEFKAGY-OH; disulfide 1-5, 14-26), the negative logarithm of the IC50 (pIC50) is 7.00 to 9.00 against human PAC1 receptor and 9.00 to 11.00 on rat PAC1 receptor.

As to “CDATCHFRKAIDDCYYRSWHSNVPGSVFKACMKQHKKRWRAG-NH2 (disulfide 1-5, 14-31) [compound 71]”, the pIC50 at human PAC1 receptor and on rat PAC1 receptor was 9.00 to 11.00 in each case.
